According to PMC12677653, “Inhibition of Tumor Lipogenesis and Growth by Peptide‐Based Targeting of SREBP Activation” (Advanced Science, 2025):

Target: T1, binding of PCK1 to Insig1 (Homo sapiens, UniProt P35558)
T1 sequence (P35558 1-622): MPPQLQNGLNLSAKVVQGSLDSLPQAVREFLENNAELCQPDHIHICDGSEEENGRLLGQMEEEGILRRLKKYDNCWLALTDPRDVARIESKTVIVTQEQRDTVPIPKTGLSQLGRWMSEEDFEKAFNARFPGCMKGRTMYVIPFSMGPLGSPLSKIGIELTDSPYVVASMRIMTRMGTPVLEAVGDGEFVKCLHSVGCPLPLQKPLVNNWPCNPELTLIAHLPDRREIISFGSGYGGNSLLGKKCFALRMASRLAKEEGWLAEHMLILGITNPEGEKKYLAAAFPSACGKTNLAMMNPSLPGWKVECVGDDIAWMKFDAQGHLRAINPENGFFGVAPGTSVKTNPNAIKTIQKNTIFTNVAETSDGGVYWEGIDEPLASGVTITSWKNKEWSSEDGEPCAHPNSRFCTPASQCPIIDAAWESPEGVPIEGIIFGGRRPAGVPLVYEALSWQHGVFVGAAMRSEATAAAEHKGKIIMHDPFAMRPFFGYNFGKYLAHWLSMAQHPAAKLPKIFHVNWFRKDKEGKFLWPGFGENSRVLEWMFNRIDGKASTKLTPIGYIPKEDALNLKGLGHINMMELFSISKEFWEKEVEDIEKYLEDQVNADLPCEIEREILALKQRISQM
Assay: Immunoprecipitation of IGF1-induced PCK1-Insig1 binding, Huh7
Type: cell-based
Set-up: expressed in transfected cells; host or cells: Huh7
Details: Flag-PCK1-expressing Huh7 cells, peptide 15 µM 1 h before IGF1 100 ng/mL
Protocol: Figure 1 The Insig1/2 loop 1 peptide binds to S90‐phosphorylated PCK1 and blocks PCK1‐mediated SREBP activation and tumor cell proliferation. Immunoblotting analyses were performed using the indicated antibodies; representative results from three independent experiments are shown (IP, immunoprecipitation; WB, western blot). a) Huh7 cells expressing various Insig1 (top) or Insig2 (bottom) truncation mutants were treated with or without IGF1 (100 ng mL^−1) for 1 h. b,c) Biolayer interferometry assays (Sartorius Octet) were employed to measure the binding affinity of Insig1/2 loop 1 peptide to GST‐PCK1 or GST‐PCK1 pS90 proteins. […] Statistical significance was determined by one‐way analysis of variance (ANOVA). g) Following pretreatment with Insig1/2 loop 1 peptide (15 µM) and IGF1 stimulation (100 ng mL^−1, 8 h), Huh7 cells were subjected to immunofluorescence analysis (scale bar: 10 µm). h) Quantitative PCR analysis of SREBP1 target gene GPAM in Huh7 cells pretreated with Insig1/2 loop 1 peptide (15 µM) and stimulated with IGF1 (100 ng mL^−1) for 10 h. […] Statistical significance was determined by one‐way analysis of variance (ANOVA). i) Quantitative PCR analysis of SREBP1 target gene FASN in Huh7 cells pretreated with Insig1/2 loop 1 peptide (15 µM) and stimulated with IGF1 (100 ng mL^−1) for 10 h. […]

## RKKRRQRRRLYPCIDSHLGEPHKFKRE [Insig1/2 loop 1 peptide]
  IGF1-induced binding of PCK1 to Insig1: markedly inhibited
